Consider 33 molecules from patent US20180339976A1, “NOVEL TRIAZOLE DERIVATIVES” (priority 2015, published 2018).

Structures are written as SMILES.

The first data set can be described thus: Log P by HPLC on reversed phase columns (EEC directive 79/831 Annex V.A8). It is filed as physicochemical.
Conditions: not given
The method, then:
Measurement of Log P values was performed according to EEC directive 79/831 Annex V.A8 by HPLC (High Performance Liquid Chromatography) on reversed phase columns with the following methods: • ^[a]
If more than one Log P value is available within the same method, all the values are given and separated by “+”.
Lambda-max-values were determined using UV-spectra from 200 nm to 400 nm and the peak values of the chromatographic signals.
Regarding `OC(Cc1ccnc(Cl)c1F)(Cn1cncn1)c1ccc(Cl)cc1` (stereo not drawn) [Example I-10], the LogP was 2.23^[a]. On the same count and under the same terms, to `OC(Cc1ccnc(Cl)c1F)(Cn1cncn1)c1ccccc1Cl` (stereo not drawn) [Example I-07] belongs 2.27^[a]; to `OC(Cc1cc(F)ncc1Cl)(Cn1cncn1)c1ccc(Cl)cc1` (stereo not drawn) [Example I-28], 2.43^[a]. As for `OC(Cc1cc(Cl)ncc1F)(Cn1cncn1)c1ccc(F)cc1F` (stereo not drawn) [Example I-45], the LogP was 2.13^[a]. For the molecule `OC(Cc1ccncc1Cl)(Cn1cncn1)c1ccc(F)cc1` (stereo not drawn) [Example I-18], the LogP is 1.57^[a]. As for `COC(Cc1ccnc(Cl)c1F)(Cn1cncn1)c1ccc(F)cc1F` (stereo not drawn) [Example I-57], the LogP was 2.47^[a]. On to `OC(Cc1ccncc1F)(Cn1cncn1)c1ccc(F)cc1F` (stereo not drawn) [Example I-43], for which the LogP is 1.47^[a]. Take `OC(Cc1cc(Cl)ncc1F)(Cn1cncn1)c1ccccc1` (stereo not drawn) [Example I-48]: the LogP was 1.86^[a]. On the same count and under the same terms, the figure for `OC(Cc1ccnc(Cl)c1)(Cn1cncn1)c1ccc(Cl)cc1Cl` (stereo not drawn) [Example I-50] is 2.42^[a]. `OC(Cc1cc(F)ncc1Cl)(Cn1cncn1)c1ccc(F)cc1F` (stereo not drawn) [Example I-41]: the LogP is 2.35^[a].

`OC(Cc1cc(Cl)ncc1F)(Cn1cncn1)c1ccc(Cl)cc1` (stereo not drawn) [Example I-40]: the LogP is 2.27^[a]. The same measure, in the same setting: the figure for `OC(Cc1ccncc1Cl)(Cn1cncn1)c1ccc(Oc2ccc(Cl)cc2)cc1` (stereo not drawn) [Example I-06] is 2.90^[a]; for `OC(Cc1cc(F)ncc1Cl)(Cn1cncn1)c1ccc(Oc2ccccc2)cc1` (stereo not drawn) [Example I-34] it is 3.02^[a]; for `OC(Cc1ccnc(Cl)c1F)(Cn1cncn1)c1ccc(Oc2ccccc2)cc1` (stereo not drawn) [Example I-46] it is 2.84^[a].

On to `OC(Cc1ccnc(Cl)c1F)(Cn1cncn1)c1ccc(F)cc1F` (single isomer, unassigned) [Example I-56], for which the LogP was 2.21^[a]. Regarding `OC(Cc1ccncc1F)(Cn1cncn1)c1ccc(F)cc1` (stereo not drawn) [Example I-13], the LogP is 1.26^[a].

Staying with this data set, now noted: Table 1, formula (I); method [a]: LC-UV, acidic range, 0.1% formic acid in water and acetonitrile.
In the case of `OC(Cc1cc(F)ncc1Cl)(Cn1cncn1)c1ccc(-c2ccccc2)cc1` (stereo not drawn) [Example I-27], the LogP was 3.02^[a].

Still in this data set, the particulars now being: Table 2, epoxides of formula (XII); method [a]: LC-UV, acidic range, 0.1% formic acid in water and acetonitrile.
As to `Fc1ccc(C2(Cc3c(Cl)cncc3Cl)CO2)c(F)c1` (racemic) [XII-55], the LogP is 3.68^[a]. With `Clc1ccc(C2(Cc3ccnc(Cl)c3)CO2)c(Cl)c1` (stereo not drawn) [XII-10], the LogP is 3.85^[a]. On to `Fc1ccc(C2(Cc3ccncc3F)CO2)cc1` (stereo not drawn) [XII-4], for which the LogP was 2.23^[a]. The same measure, in the same setting: the figure for `Cc1cc(C)c(C2(Cc3ccncc3Cl)CO2)c(C)c1` (racemic) [XII-60] is 4.15^[a].

Turning to `Clc1cnccc1CC1(c2c(Cl)cccc2Cl)CO1` (racemic) [XII-62], the LogP is 3.02^[a].

For the molecule `Fc1cnc(Cl)cc1CC1(c2ccc(-c3ccccc3)cc2)CO1` (stereo not drawn) [XII-22], the LogP was 4.28^[a].

Consider `Fc1ccc(Oc2ccc(C3(Cc4cc(Cl)ncc4F)CO3)cc2)c(F)c1` (stereo not drawn) [XII-21], for which the LogP is 4.17^[a]. For `Clc1ccc(C2(Cc3cccnc3Cl)CO2)cc1` (stereo not drawn) [XII-24], the LogP is 3.25^[a]. The same measure, in the same setting: the figure for `Fc1c(CC2(c3ccc(Cl)cc3Cl)CO2)ccnc1Cl` (racemic) [XII-46] is 3.02^[a]; for `CC(C)(C)c1noc(-c2ccc(C3(Cc4ccncc4Cl)CO3)cc2)n1` (stereo not drawn) [XII-65] it is 4.25^[a]; for `Clc1ccccc1C1(Cc2c(Cl)cncc2Cl)CO1` (racemic) [XII-59] it is 4.04^[a]. Take `Fc1ccc(C2(Cc3ccnc(Cl)c3)CO2)cc1` (stereo not drawn) [XII-14]: the LogP is 2.76^[a]. In the case of `Clc1cnccc1CC1(c2ccccc2Cl)CO1` (stereo not drawn) [XII-29], the LogP was 3.02^[a].

With `FC(F)(F)c1ccc(C2(Cc3cccnc3Cl)CO2)cc1` (stereo not drawn) [XII-25], the LogP is 3.46^[a]. For `Fc1c(CC2(c3ccccc3Cl)CO2)ccnc1Cl` (racemic) [XII-49], the LogP is 3.47^[a].

As to `Fc1ccc(C2(Cc3ccncc3Cl)CO2)cc1` (stereo not drawn) [XII-27], the LogP was 2.65^[a].
